Read-outs that look alike come from different tables or passages of the source.
Molecular target: T1, Androgen Receptor (Homo sapiens, UniProt P10275)
T1 construct: endogenous in cells; host or cells: VCaP cells
T1 sequence (P10275 1-920): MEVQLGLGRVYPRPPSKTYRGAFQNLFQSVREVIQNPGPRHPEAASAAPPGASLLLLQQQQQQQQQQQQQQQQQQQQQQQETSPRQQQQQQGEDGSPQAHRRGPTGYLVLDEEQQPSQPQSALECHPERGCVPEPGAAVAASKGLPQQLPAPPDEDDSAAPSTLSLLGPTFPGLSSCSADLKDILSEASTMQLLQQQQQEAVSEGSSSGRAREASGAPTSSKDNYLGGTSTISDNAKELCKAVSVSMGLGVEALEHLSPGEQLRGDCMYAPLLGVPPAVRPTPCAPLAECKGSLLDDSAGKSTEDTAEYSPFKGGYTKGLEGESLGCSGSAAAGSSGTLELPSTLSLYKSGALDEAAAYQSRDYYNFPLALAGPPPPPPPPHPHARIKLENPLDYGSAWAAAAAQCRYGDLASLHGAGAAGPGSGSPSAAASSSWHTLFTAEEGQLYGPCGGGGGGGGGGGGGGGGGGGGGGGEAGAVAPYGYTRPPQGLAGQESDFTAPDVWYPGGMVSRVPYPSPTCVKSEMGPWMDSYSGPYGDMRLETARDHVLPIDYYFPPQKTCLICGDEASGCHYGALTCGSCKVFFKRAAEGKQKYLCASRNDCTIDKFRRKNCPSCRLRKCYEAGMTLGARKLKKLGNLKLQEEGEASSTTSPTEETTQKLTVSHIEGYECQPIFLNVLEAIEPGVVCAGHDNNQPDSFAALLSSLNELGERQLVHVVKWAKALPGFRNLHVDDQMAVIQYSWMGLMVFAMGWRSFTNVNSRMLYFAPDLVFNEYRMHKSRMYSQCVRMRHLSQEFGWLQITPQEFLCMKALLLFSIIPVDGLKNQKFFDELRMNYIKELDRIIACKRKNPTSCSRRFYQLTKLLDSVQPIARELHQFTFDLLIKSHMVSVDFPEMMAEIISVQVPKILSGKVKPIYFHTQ
Experiment: Androgen Receptor ELISA assay (PathScan AR ELISA) in VCaP cells: AR degradation, Dmax and DC50
Format: cell-based
Procedure, shortened: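 VCaP cells in phenol red-free RPMI with 5% charcoal-stripped FBS were grown at least 3 days, then given compound as 7 half-log doses in 0.1% DMSO with 0.1 nM R1881 for 24 h. Lysates went into a sandwich AR ELISA with TMB read at 450 nm.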

[1] = read-out: VCaP DC50; VCaP cells; Table 36
[2] = VCaP cells; Table 36; read-out: VCaP DC50
[3] = VCaP, VCaP cells; Table 36; read-out: VCaP Dmax (%)
[4] = VCaP, read-out: VCaP Dmax (%), VCaP cells; Table 36

Compound	DC50 [2] [µM]	Dmax [3] [%]	Dmax (VCaP, read-out: VCaP Dmax (%)) [%]	DC50 [1] [µM]	Dmax [4] [%]
Cc1ncsc1-c1ccc([C@H](C)NC(=O)[C@@H]2C[C@@H](O)CN2C(=O)[C@@H](NC(=O)COCCN2C[C@H]3C[C@@H]2CN3c2ccc(C(=O)N[C@H]3C(C)(C)[C@H](Oc4ccc(C#N)c(Cl)c4)C3(C)C)cn2)C(C)(C)C)cc1 [Example 636, N-((1r,3R)-3-(3-chloro-4-cyanophenoxy)-2,2,4,4-tetramethylcyclobutyl)-6-((1R,4R)-5-(2-(2-(((S)-1-((2S,4R)-4-hydroxy-2-(((S)-1-(4-(4-methylthiazol-5-yl)phenyl)ethyl)carbam-oyl)pyrrolidin-1-yl)-3,3-dimethyl-1-oxobutan-2-yl)amino)-2-oxoethoxy)ethyl)-2,5-diazabicyclo[2.2.1]hept-an-2-yl)nicotinamide]			> 71	< 0.05	
Cc1ncsc1-c1ccc([C@H](C)NC(=O)[C@@H]2C[C@@H](O)CN2C(=O)[C@@H](NC(=O)COCCN2C[C@@H]3C[C@H]2CN3c2ccc(C(=O)N[C@H]3C(C)(C)[C@H](Oc4ccc(C#N)c(Cl)c4)C3(C)C)cn2)C(C)(C)C)cc1 [Example 637, N-((1r,3S)-3-(3-chloro-4-cyanophenoxy)-2,2,4,4-tetramethylcyclobutyl)-6-((1S,4S)-5-(2-(2-(((S)-1-((2S,4R)-4-hydroxy-2-(((S)-1-(4-(4-methylthiazol-5-yl)phenyl)ethyl)carbam-oyl)pyrrolidin-1-yl)-3,3-dimethyl-1-oxobutan-2-yl)amino)-2-oxoethoxy)ethyl)-2,5-diazabicyclo[2.2.1]hept-an-2-yl)nicotinamide]			> 71	< 0.05	
Cc1ncsc1-c1ccc(CNC(=O)[C@@H]2C[C@@H](O)CN2C(=O)[C@@H](NC(=O)COCCN2CCN(c3ccc(C(=O)N[C@H]4C(C)(C)[C@H](Oc5ccc(C#N)c(Cl)c5)C4(C)C)cn3)CC2)C(C)(C)C)cc1 [Example 638]	< 0.05	> 71			
Cc1ncsc1-c1ccc([C@H](C)NC(=O)[C@@H]2C[C@@H](O)CN2C(=O)[C@@H](NC(=O)COCCCCOc2ccc(C(=O)N[C@H]3C(C)(C)[C@H](Oc4ccc(C#N)c(C(F)(F)F)c4)C3(C)C)cc2)C(C)(C)C)cc1 [Example 641, (2S,4R)-1-((S)-2-(2-(4-(4-(((1r,3r)-3-(4-cyano-3-(trifluorometh-yl)phenoxy)-2,2,4,4-tetramethylcyclobutyl)carbamoyl)phenoxy)butoxy)acetamido)-3,3-dimethylbutanoyl)-4-hydroxy-N-((S)-1-(4-(4-methylthiazol-5-yl)phenyl)ethyl)pyrrolidine-2-carboxamide]	< 0.05				> 71
Cc1ncsc1-c1ccc([C@H](C)NC(=O)C2C[C@@H](O)CN2C(=O)[C@@H](NC(=O)COCCC2(CCNc3ccc(C(=O)N[C@H]4C(C)(C)[C@H](Oc5ccc(C#N)c(Cl)c5)C4(C)C)cc3)COC2)C(C)(C)C)cc1 (some centres unmarked) [Example 642]	< 0.05	> 71			
Cc1ncsc1-c1ccc([C@H](C)NC(=O)[C@@H]2C[C@@H](O)CN2C(=O)[C@@H](NC(=O)CN2CCOCCN(CCOc3ccc(N4C(=S)N(c5ccc(C#N)c(C(F)(F)F)c5)C(=O)C4(C)C)cc3)CCOCC2)C(C)(C)C)cc1 [Example 643, (2S,4R)-1-((S)-2-(2-(10-(2-(4-(3-(4-cyano-3-(trifluoromethyl)phenyl)-5,5-dimethyl-4-oxo-2-thioxoimidazolidin-1-yl)phenoxy)ethyl)-1,7-dioxa-4,10-diazacyclododecan-4-yl)acetamido)-3,3-dimethylbutanoyl)-4-hydroxy-N-((S)-1-(4-(4-methylthiazol-5-yl)phenyl)ethyl)pyrrolidine-2-carboxamide]			< 25	> 0.501	
Cc1ncsc1-c1ccc([C@H](C)NC(=O)[C@@H]2C[C@@H](O)CN2C(=O)[C@@H](NC(=O)Cc2ccnc(N3CCN(c4ccc(C(=O)N[C@H]5C(C)(C)[C@H](Oc6ccc(C#N)c(Cl)c6)C5(C)C)cn4)CC3)c2)C(C)(C)C)cc1 [Example 644, N-((1r,3r)-3-(3-chloro-4-cyanophenoxy)-2,2,4,4-tetramethylcyclobutyl)-6-(4-(4-(2-(((S)-1-((2S,4R)-4-hydroxy-2-(((S)-1-(4-(4-methylthiazol-5-yl)phenyl)ethyl)carbam-oyl)pyrrolidin-1-yl)-3,3-dimethyl-1-oxobutan-2-yl)amino)-2-oxoethyl)pyridin-2-yl)piperazin-1-yl)nicotinamide]	< 0.05	> 71			
Cc1ncsc1-c1ccc([C@H](C)NC(=O)[C@@H]2C[C@@H](O)CN2C(=O)[C@@H](C(C)C)n2cc(OCCCOCCCn3cnc(-c4ccc(N5C(=S)N(c6ccc(C#N)c(C(F)(F)F)c6)C(=O)C5(C)C)cc4)c3)cn2)cc1 [Example 647, (2S,4R)-1-((R)-2-(4-(3-(3-(4-(4-(3-(4-cyano-3-(trifluoromethyl)phenyl)-5,5-dimethyl-4-oxo-2-thhioxoimidazolidin-1-yl)phenyl)-1H-imidazol-1-yl)propoxy)propoxy)-1H-pyrazol-1-yl)-3-methylbutanoyl)-4-hydroxy-N-((S)-1-(4-(4-methylthiazol-5-yl)phenyl)ethyl)pyrrolidine-2-carboxamide]			< 25	> 0.501	
Cc1ncsc1-c1ccc([C@H](C)NC(=O)[C@@H]2C[C@@H](O)CN2C(=O)[C@H](C(C)C)n2cc(OCCCOCCCn3cnc(-c4ccc(N5C(=S)N(c6ccc(C#N)c(C(F)(F)F)c6)C(=O)C5(C)C)cc4)c3)cn2)cc1 [Example 648, (2S,4R)-1-((S)-2-(4-(3-(3-(4-(4-(3-(4-cyano-3-(trifluoromethyl)phenyl)-5,5-dimethyl-4-oxo-2-thioxoimidazolidin-1-yl)phenyl)-1H-imidazol-1-yl)propoxy)propoxy)-1H-pyrazol-1-yl)-3-methylbutanoyl)-4-hydroxy-N-((S)-1-(4-(4-methylthiazol-5-yl)phenyl)ethyl)pyrrolidine-2-carboxamide]			< 25	> 0.501	

Now from value to molecule, other results behind:

DC50 [2] [µM]	Dmax [3] [%]	Compound	Dmax (VCaP, read-out: VCaP Dmax (%)) [%]	DC50 [1] [µM]	Dmax [4] [%]
< 0.05	> 71	Cc1ncsc1-c1ccc([C@H](C)NC(=O)[C@@H]2C[C@@H](O)CN2C(=O)[C@@H](NC(=O)CO[C@@H](C)CN2CCN(c3ccc(C(=O)N[C@H]4C(C)(C)[C@H](Oc5ccc(C#N)c(Cl)c5)C4(C)C)cc3)CC2)C(C)(C)C)cc1 [Example 639, (1S,4R)-1-((S)-2-(2-(((S)-1-(4-(4-(((1r,3S)-3-(3-chloro-4-cyanophenoxy)-2,2,4,4-tetramethylcyclobutyl)carbamoyl)phenyl)piper-azin-1-yl)propan-2-yl)oxy)acetamido)-3,3-dimethylbutanoyl)-4-hydroxy-N-((S)-1-(4-(4-methylthiazol-5-yl)phenyl)ethyl)pyrrolidine-2-carboxamide]			
< 0.05		Cc1ncsc1-c1ccc(CNC(=O)[C@@H]2C[C@@H](O)CN2C(=O)[C@@H](NC(=O)CN2CCC(OCCOc3ccc(C(=O)N[C@H]4C(C)(C)[C@H](Oc5ccc(C#N)c(C(F)(F)F)c5)C4(C)C)cc3)CC2)C(C)(C)C)cc1 [Example 640, (2S,4R)-1-((S)-2-(2-(4-(2-(4-(((1r,3r)-3-(4-cyano-3-(trifluorometh-yl)phenoxy)-2,2,4,4-tetramethylcyclobutyl)carbamoyl)phenoxy)eth-oxy)piperidin-1-yl)acetamido)-3,3-dimethylbutanoyl)-4-hydroxy-N-(4-(4-methylthiazol-5-yl)benzyl)pyrrolidine-2-carboxamide]			> 71
< 0.05	51 to 70	Cc1ncsc1-c1ccc(CNC(=O)[C@@H]2C[C@@H](O)CN2C(=O)[C@@H](NC(=O)CN2CCN(CCOc3ccc(C(=O)N[C@H]4C(C)(C)[C@H](Oc5ccc(C#N)c(Cl)c5)C4(C)C)cc3)CC2)C(C)(C)C)cc1 [Example 645, (2S,4R)-1-((S)-2-(2-(4-(2-(4-(((1r,3r)-3-(3-chloro-4-cyanophenoxy)-2,2,4,4-tetramethylcyclobutyl)carbamoyl)phenoxy)eth-yl)piperazin-1-yl)acetamido)-3,3-dimethylbutanoyl)-4-hydroxy-N-(4-(4-methylthiazol-5-yl)benzyl)pyrrolidine-2-carboxamide]			
< 0.05	26 to 50	Cc1ncsc1-c1ccc(CNC(=O)[C@@H]2C[C@@H](O)CN2C(=O)[C@@H](NC(=O)CN2CCN(CCOc3ccc(C(=O)N[C@H]4C(C)(C)[C@H](Oc5ccc(C#N)c(C(F)(F)F)c5)C4(C)C)cc3)CC2)C(C)(C)C)cc1 [Example 646, (2S,4R)-1-((S)-2-(2-(4-(2-(4-(((1r,3r)-3-(4-cyano-3-(trifluoromethyl)phenoxy)-2,2,4,4-tetramethylcyclobutyl)carbamoyl)phenoxy)eth-yl)piperazin-1-yl)actamido)-3,3-dimethylbutanoyl)-4-hydroxy-N-(4-(4-methylthiazol-5-yl)benzyl)pyrrolidine-2-carboxamide]			

Source: patent publication US11427548B2 (Arvinas Operations, Inc., priority 2015, dated 2022)
